Test results published in patent US8324264B1, “Inhibitors of bacterial biofilms and related methods” (Sequoia Sciences, Inc., priority 2011, dated 2012).
Values after ≈ are worked out from the molar mass of the structure shown.

Key:
[1] = test system: P. aeruginosa biofilms; experiment: Biofilm growth assay (spreading biofilm on semi-solid agar), P. aeruginosa; assay type: cell-based; parameters: P. aeruginosa (n = 10) inhibitory concentration in the biofilm growth assay: unit: ug/mL; settings: for IC85: Pseudomonas aeruginosa, biofilm growth assay, vs negative controls, Tables 1-5, read-out: P. aeruginosa: concentration that reduces the area of the spreading biofilm by greater than or equal to 85%
Outline: (§1)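 Values are compound concentrations (μg/ml) that cut the spreading-biofilm zone area by ≥85% relative to negative controls after overnight 37 °C growth from 5 μL central inoculum. E. coli plates: LB, 0.6% agar, 0.5% glucose; P. aeruginosa plates: M8 agar plus 0.2% glucose, 100 μM CaCl2, 1 mM MgSO4, 0.5% Casamino acids.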

[2] = test system: E. coli biofilms; experiment: Biofilm growth assay (spreading biofilm on semi-solid agar), E. coli; assay type: cell-based; parameters: E. coli (n = 10) inhibitory concentration in the biofilm growth assay: unit: ug/mL; settings: for IC85: Escherichia coli, biofilm growth assay, overnight 37° C., vs negative controls, Tables 1-5, read-out: E. coli: concentration that reduces the area of the spreading biofilm by greater than or equal to 85%
Outline: as §1

[3] = Evaluation of salts; assay type: physicochemical
Description: Evaluation of Compound 62 (Table 4) salt formation was performed. […] As stated herein, the invention also includes compounds and their salts. Evaluation of Compound 64 (Table 4) salt formation was performed. HCl (mono and bis), p-TSA (bis), BSA (bis), MSA (bis), H2SO4 (mono), and H3PO4 (mono) provided salts with crystallinity. […] As stated herein, the invention also includes compounds and their salts.

[4] = test system: B. cepacia; experiment: Biofilm growth assay, Burkholderia cepacia; assay type: cell-based; settings: Table 6, n = 10 isolates; M9 salts, 0.7% citrate, 0.4% Noble agar
Description: The biofilm growth assay was carried out to measure swarming or biofilm spreading on semi-solid agar media in round plates (for example, 100×15 mm), also referred to as Petri dishes. For E. coli, the plates contained LB medium with 0.6% agar and 0.5% glucose. P. aeruginosa plates were made with M8 agar supplemented with 0.2% glucose, 100 μM CaCl2, 1 mM MgSO4, and 0.5% Casamino acids. The agar plates of this assay consisted of 0.4% to 0.7% agar (Bacto or Noble agar), although other media may also be used as described in the literature and known to those skilled in the art. Test compounds at the desired concentration were added to the cooled, autoclaved media. Portions of the media were then poured into the plates (20 mL/plate), and the plates allowed to dry at room temperature for approximately 3 to 4 hours. Alternatively, however, plates may be dried in a laminar flow hood for approximately fifteen to twenty minutes. Overnight cultures were grown in a 37° C. shaker in LB (E. coli) or TSB (P. aeruginosa). Plates were inoculated by placing 5 μL of the appropriate overnight culture in the centers of the plates. The plates then were incubated overnight at 37° C. The area of the zone of spreading bacteria was then measured and replicates are averaged. Percent inhibition was calculated as 100×(area without compound−area with compound)/(area without compound). […] A > (“greater than” symbol) as used in Table 1 is well understood to those skilled in the art as an indication that the listed concentration was not effective at this concentration.
(§2) Table 6, below, lists the inhibitory concentrations of select compounds and antibiotics in the biofilm growth assay against various gram-negative bacterial biofilms. “N” means the number of isolates of bacteria tested. The biofilm growth assay procedure detailed in Example I, above, was followed. Burkholderia cepacia used media consisting of M9 salts, 100 μM CaCl2, 1 mM MgSO4, and 0.7% citrate in 0.4% Noble agar. Salmonella spp. used media consisting of Nutrient Broth with 0.5% glucose in 0.5% Noble agar.

[5] = test system: Salmonella spp.; experiment: Biofilm growth assay, Salmonella spp.; assay type: cell-based; settings: Table 6, n = 6 isolates; Nutrient Broth, 0.5% glucose, 0.5% Noble agar
Description: The biofilm growth assay was carried out to measure swarming or biofilm spreading on semi-solid agar media in round plates (for example, 100×15 mm), also referred to as Petri dishes. For E. coli, the plates contained LB medium with 0.6% agar and 0.5% glucose. P. aeruginosa plates were made with M8 agar supplemented with 0.2% glucose, 100 μM CaCl2, 1 mM MgSO4, and 0.5% Casamino acids. The agar plates of this assay consisted of 0.4% to 0.7% agar (Bacto or Noble agar), although other media may also be used as described in the literature and known to those skilled in the art. Test compounds at the desired concentration were added to the cooled, autoclaved media. Portions of the media were then poured into the plates (20 mL/plate), and the plates allowed to dry at room temperature for approximately 3 to 4 hours. Alternatively, however, plates may be dried in a laminar flow hood for approximately fifteen to twenty minutes. Overnight cultures were grown in a 37° C. shaker in LB (E. coli) or TSB (P. aeruginosa). Plates were inoculated by placing 5 μL of the appropriate overnight culture in the centers of the plates. The plates then were incubated overnight at 37° C. The area of the zone of spreading bacteria was then measured and replicates are averaged. Percent inhibition was calculated as 100×(area without compound−area with compound)/(area without compound). An active compound was considered that which reduces the area of the spreading biofilm compared to negative controls by greater than or equal to 85%. The values shown in Table 1 are the concentrations of compounds (μg/ml) tested in the biofilm growth assay that reduce the area of the spreading biofilm compared to negative controls by greater than or equal to 85% unless noted differently in Table 1. A > (“greater than” symbol) as used in Table 1 is well understood to those skilled in the art as an indication that the listed concentration was not effective at this concentration.
as §2

[6] = test system: Pseudomonas syringae; experiment: Biofilm growth assay, plant pathogen Pseudomonas syringae; assay type: cell-based; settings: M8 salts, 0.7% glucose, 0.5% Noble agar, 30° C., 24 to 48 hours
[7] = test system: Xanthomonas campestris; experiment: Biofilm growth assay, plant pathogen Xanthomonas campestris; assay type: cell-based; settings: M8 salts, 0.7% glucose, 0.5% Noble agar, 30° C., 24 to 48 hours
[8] = test system: Pectobacterium atrosepticum; experiment: Biofilm growth assay, plant pathogen Pectobacterium atrosepticum; assay type: cell-based; settings: M8 salts, 0.7% glucose, 0.5% Noble agar, 30° C., 24 to 48 hours
[9] = test system: P. aeruginosa biofilms; experiment: Biofilm Growth Assay with compound in half of the agar and antibiotic disks; assay type: cell-based; settings: 0.125 μg/ml in agar with colistin 10 μg disks
Description: The Biofilm Growth Assay as described in Example VII was performed in round plates with the compounds of the invention in agar on half of the plate and antibiotic disks placed onto the agar containing the compounds of the invention.
The Biofilm Growth Assay was performed as described in Example VIII. 2 to 4 antibiotic disks were placed onto the agar containing a compound of the invention in a line parallel to the line that separates the two agars in one round plate. Appropriate negative and positive control plates were performed as known to those skilled in the art.

[10] = test system: cysB; settings: as described in U.S. Pat. No. 7,604,978; cited from earlier work

With `CC1(C)CC[C@]2(C(N)=O)CC[C@]3(C)C(=CCC4[C@@]5(C)Cc6c(n[nH]c6N)C(C)(C)[C@@H]5CC[C@]43C)[C@@H]2C1` (stereo partly drawn) [Compound 62, (4aS,6aS,6bR,13aR)-12-Amino-2,2,6a,6b,9,9,13a-heptamethyl-2,3,4,4a,5,6,6a,6b,7,8,8a,9,11,13,13a,13b,14,15b-octadecahydro-1H-chryseno[1,2-f]indazole-4-a-carboxamide] the IC85 ([1]; overnight 37° C.) was 1 µg/mL (≈ 2.03 µM), the IC85 [2] was 1 µg/mL (≈ 2.03 µM) and the “physical properties of salts compared to freebase” value ([3]; p-toluenesulfonic acid (mono) and H3PO4 (bis) salts) was “most desirable physical properties”.

With `CN(C)C[C@]12CCC(C)(C)C[C@H]1C1=CC[C@@H]3[C@@]4(C)Cc5c(n[nH]c5N)C(C)(C)[C@@H]4CC[C@@]3(C)[C@]1(C)CC2` [Compound 64] the IC85 ([1]; overnight 37° C.) was 0.5 µg/mL (≈ 0.987 µM), the IC85 [2] was 1 µg/mL (≈ 1.97 µM) and the “aqueous solubility of salts compared to freebase” value ([3]; Bis-MSA and mono-H3PO4 salts) was “increased aqueous solubility”.

In the case of `CC1(C)CC[C@]2(C(=O)O)CC[C@]3(C)C(=CCC4[C@@]5(C)Cc6c(n[nH]c6N)C(C)(C)[C@@H]5CC[C@]43C)[C@@H]2C1` (stereo partly drawn) [Compound 1, (4aS,6aS,6bR,13aR)-12-Amino-2,2,6a,6b,9,9,13a-heptamethyl-2,3,4,4a,5,6,6a,6b,7,8,8a,9,11,13,13a,13b,14,15b-octadecahydro-1H-chryseno[1,2-f]indazole-4-a-carboxylic acid], the “growth of the spreading P. aeruginosa biofilm (FIG. 1)” value ([1]; 0.5 μg/ml in agar, overnight 37° C.) is reported as “prevented the growth”, the optimal working concentration ([1]; P. aeruginosa biofilm growth assay (FIG. 2 legend)) is reported as 0.5 µg/mL and the IC85 ([1]; overnight 37° C.) is reported as 0.5 µg/mL (≈ 1.01 µM). The “P. aeruginosa (n = 10) inhibitory concentration in the biofilm growth assay” value ([1]; Table 6, n = 10 isolates) was 1, the IC85 [2] was 1 µg/mL (≈ 2.03 µM) and the “E. coli (n = 10) inhibitory concentration in the biofilm growth assay” value ([2]; Table 6, n = 10 isolates) was 1. The “B. cepacia (n = 10) inhibitory concentration in the biofilm growth assay” value [4] was 0.25, the “Salmonella spp. (n = 6) inhibitory concentration in the biofilm growth assay” value [5] was 1 and the “concentration inhibiting the spreading biofilm of Pseudomonas syringae” value [6] was 0.03 µg/mL. The “concentration inhibiting the spreading biofilm of Xanthomonas campestris” value [7] was 0.5 µg/mL, the “concentration inhibiting the spreading biofilm of Pectobacterium atrosepticum” value [8] was 0.06 µg/mL and the “combination with colistin at preventing the growth of P. aeruginosa biofilms (FIG. 2)” value [9] was “synergistic”. For the same compound, the “modulation of cysB and genes under its control” value [10] was “modulates cysB and genes under its control”.
